Experiments:
PC 12 cell = details: serum withdrawal or addition of hydrogen peroxide, β-amyloid peptide or MPP+; cited from earlier work
C57BL/6 mice [1] = test system: C57BL/6 mice
Protocol: (§1) To test whether quetiapine can protect mouse brain from cuprizone-induced demyelination, 8-week old mice were fed a diet of milled LabDiet® rodent chow (PMI nutrition international LLC, Brentwood, Mo., USA) containing 0.2% cuprizone for 5 weeks (w/w) (Sigma-Aldrich, St. Louis, Mo., USA) as previously described (Morell et al., 1998). […] The study included the following 4 groups (6-8 animals/group): group 1: control, fed with regular chow (con); group 2: pre-administrated with quetiapine (10 mg/kg/day in drinking water) for 1 week, then followed by 5 weeks of quetiapine administration with normal diet (que); group 3: fed for 5 weeks on a cuprizone-containing diet (cup) with regular tap water for drinking; group 4: pre-administrated with quetiapine (10 mg/kg/day in drinking water) for 1 week, then followed by 5 weeks of quetiapine treatment with cuprizone administration (cup+que).
(§2) To study the effect of quetiapine on the remyelination process, an additional two groups (6-8 animals/group) of mice were treated with 0.2% cuprizone in milled chow for 6 weeks, and then returned to a cuprizone-free diet (Matsushima and Morell, 2001). Upon resumption of the cuprizone-free diet, mice were fed with either vehicle (water) or quetiapine (10 mg/kg/day in water, que) for 2 weeks.
Immediately after the locomotor activity test, spatial working memory was assessed by recording spontaneous alternation behavior in a Y-maze comprised of three 30-cm compartments marked as A, B, and C arms. Spontaneous alternation behavior is based on the natural tendency of rodents to explore a novel environment. In a Y-maze, mice tend to explore the maze by systematically entering each arm. For efficient alternation, mice are required to know which arms have already been visited. Therefore, alternation behavior can be regarded as a measure involving spatial working memory. […] Each mouse was placed at the end of one arm and allowed to move freely through the maze during an 8-min period. The total number and series of arm entries were recorded visually. The number of overlapping entrance sequences (e.g., ABC, BCA) was defined as the number of alternations. The effect was calculated as the percentage of alternation according to the following formula: Percent alternation=(number of alternations)/(total number of arm entries-2)×100 (Wall et al., 2002). Total entries were scored as an index of ambulatory activity in the Y-maze, and mice showing scores below six entries would be excluded.

C57BL/6 mice [2] = details: all groups (con, que, cup, cup+que); data not shown
Protocol: as §1, §2

C57BL/6 mice [3] = test system: C57BL/6 mice; remark: listed apart in the source
Protocol: as §1, §2
At the end of their treatment period, mice were anaesthetized with pentobarbital sodium at 50 mg/kg and perfused intracardially with 0.01 M PBS followed by 4% paraformaldehyde in PBS, and the brains were post-fixated overnight in 4% paraformaldehyde. Brain tissues were then rinsed 3 times with 0.01 M PBS and cryoprotected in 30% sucrose at 4° C. for one day and frozen at −80° C. for immunostaining. Serial coronal sections were dissected between levels 1 to −1 mm bregma, as defined in the mouse brain atlas of Franklin and Paxinos (Franklin and Paxinos, 1997). Demyelination was evaluated in frozen sections (30 μm) of the corpus callosum using Luxol fast blue with periodic acid-Schiff reaction. Floating frozen sections (30 μm) were incubated with 0.3% of H2O2 in 0.01 M PBS for 30 min at room temperature (RT) for quenching endogenous peroxidase activity, then blocked with 10% goat serum/PBS or 10% rabbit serum (for MBP staining) for 1 hour at RT, and then incubated overnight with the primary antibody(s) diluted in the blocking solution. After rinsing, the sections were incubated with the appropriate biotin-conjugated secondary antibody (1:1000; Vector Laboratories, Burlingame, Calif.) for 1 hour at RT. Sections were then developed with the avidin biotin complex kit (Vector Laboratories, Burlingame, Calif.) and the antibodies were visualized with DAB chromogen (Sigma-Aldrich, St. Louis, Mo.).
A goat polyclonal antibody directed against MBP (1:250; Santa Cruz Biotechnology, CA) was used to detect myelin. A rabbit anti-pi isoform of glutathione S-transferase (GST-pi, 1:500; Stressgen, Victoria, BC, Canada) was used as a marker for mature oligodendrocytes (Mason et al., 2004); Ness et al., 2005). The rabbit polyclonal NG2 antibody (1:200; Chemicon, Temecula, Calif.) was used as a marker for oligodendrocyte progenitors (Nishiyama et al., 1996).
For GST-pi and NG2 quantification, three digital pictures from the coronal section from each animal (including the middle line and the two edges of the corpus callosum in each section) were examined. Cell counts are expressed as the mean number of positive cells counted in three coronal sections from two different areas, 500 μm apart, between 1 to −1 mm bregma, following the mouse brain atlas of Franklin and Paxinos (Franklin and Paxinos, 1997). Results are expressed as the average of at least 6 mice per group. For MBP staining analysis, three digital pictures from the coronal section (including cerebral cortex) of each animal were examined, at least 6 animals of each group.

[4] = test system: neural progenitor cell cultures; details: in vitro
BDNF = details: Xu et al., 2002; Luo et al., 2004; cited from earlier work
rats = details: He et al., 2005; cited from earlier work
[5] = He et al., 2006; Martin et al., 2005; cited from earlier work
[6] = 2 weeks of recovery from cuprizone, quetiapine 10 mg/kg/day in water vs. vehicle (water)
[7] = 0.2% cuprizone 5 weeks with quetiapine co-administration vs. cuprizone alone
[8] = quetiapine alone with normal diet vs. control

SMILES	PC 12 cell death (PC 12 cell)	total number of arm entries in Y-maze (C57BL/6 mice [1]; 0.2% cuprizone 5 weeks, co-administration of quetiapine 10 mg/kg/day p.o.)	impairment of spontaneous alternation behavior in the Y-maze (C57BL/6 mice [1]; 0.2% cuprizone 5 weeks, co-administration of quetiapine 10 mg/kg/day p.o., ++p<0.01 vs. cuprizone)	memory impairment in Y-maze during remyelination (C57BL/6 mice [1]; [6])	total arm entries in the Y-maze during remyelination (C57BL/6 mice [1]; [6])	locomotor activity (C57BL/6 mice [2])	loss of GST-pi+ mature oligodendrocytes in the corpus callosum (C57BL/6 mice [3]; 0.2% cuprizone 5 weeks with quetiapine co-administration)	demyelination in LFB-PAS staining (C57BL/6 mice [3]; [7])	number of NG2+ cells within the demyelinated areas (C57BL/6 mice [3]; [7])	reduction of demyelination in MBP staining (C57BL/6 mice [3]; [7])	remyelination in demyelinated lesions (MBP and LFB-PAS) (C57BL/6 mice [3]; 2-week recovery from cuprizone, quetiapine vs. vehicle (water))	NG2+ cells after recovery (C57BL/6 mice [3]; 2 weeks recovery from cuprizone, quetiapine vs. water)	GST-pi+ mature oligodendrocytes during remyelination (C57BL/6 mice [3]; 2 weeks recovery from demyelination, quetiapine vs. water, +p<0.05 vs. water)	NG2+ cells, quetiapine alone (C57BL/6 mice [3]; quetiapine alone with normal diet)	GST-pi+ cells, quetiapine alone (C57BL/6 mice [3]; [8])	myelination (MBP staining), quetiapine alone (C57BL/6 mice [3]; [8])	proliferation and differentiation of oligodendrocytes [4]	expression of BDNF in rat hippocampus after immobilization stress (BDNF)	short- and long-term behavioral consequences of chronic dl-amphetamine (rats)	memory deficits induced by phencyclidine and kainic acid [5]
Cc1nc2n(c(=O)c1CCN1CCC(c3noc4cc(F)ccc34)CC1)CCCC2 [risperidone]	reduce the PC 12 cell death																			
OCCOCCN1CCN(C2=Nc3ccccc3Sc3ccccc32)CC1 [quetiapine]	reduce the PC 12 cell death	decreased the rise of the total number of arm entries induced by cuprizone	significantly attenuated the impairment of spontaneous alternation behavior	did not appear to improve memory impairment	did not appear to improve memory impairment or alter the total arm entries	no significant difference among groups	did not reverse the loss of mature oligodendrocytes	showed the same trend as MBP staining	dramatically decreased the number of NG2+ cells	35%	no difference between the vehicle (water) and quetiapine treatment on remyelination	had little effect on this change	dramatically increased	Few NG2+ cells were observed	had no difference	show no difference on myelination	promoted the proliferation and differentiation of oligodendrocytes	attenuate the immobilization stress-induced decrease in the expression of BDNF	modulate the short- and long-term behavioral consequences	could reverse memory deficits

Source: US8623861B2, “Method of treating demyelination diseases” (priority 2006, dated 2014)
